Test system: NSG host mice
Assay: xGVHD model with SHP1/2 inhibitor-treated TEFF cells (Example 16)
Type: in vivo
Settings: for Tbet+: engrafted human T cells; for Tbet+ / TNF-α / Absolute no. of Foxp3+ T cells expressing IFN-γ / Absolute no. of Foxp3+ T cells expressing IL-2 / Absolute no. of Foxp3+ T cells expressing TNF-α / Absolute no. of Foxp3− T cells expressing IL-2 / Absolute no. of Foxp3− T cells expressing TNF-α: TEFF & PDL1-LV transduced T cells; for Post LPS survival (%): human TEFF cells + monos + TPDL1, inhibitor treatment of Teff 100 μM, LPS day 5; for TNF-α: serum 120 min after LPS; for Absolute no. of Foxp3+ T cells expressing IFN-γ / Absolute no. of Foxp3+ T cells expressing IL-2 / Absolute no. of Foxp3+ T cells expressing TNF-α / Absolute no. of Foxp3− T cells expressing IL-2 / Absolute no. of Foxp3− T cells expressing TNF-α / Absolute no. of Foxp3− T cells expressing IFN-γ: spleen day 6, PMA/ionomycin; for Absolute no. of Foxp3− T cells expressing IFN-γ: TEFF (inhibitor-treated ex vivo where labelled) & PDL1-LV transduced T cells
Description: Because PD1 receptor signaling occurs via SHP1/2, it was next hypothesized that ex vivo pharmacologic inhibition of this pathway using prevanadate and NSC87877 might also generate TEFF cells (TEFFShp1/2^in) resistant to the tolerizing effect of PDL1. NSG host mice received a combination of human Th1 cells (either unmodified, pervanadate-treated, or NSC87877-treated) and PDL1-LV transduced T cells. At day 6, absolute numbers of human T cells engrafted in the spleen were enumerated. Splenocyes were stimulated (PMA/ionomycin) and the absolute number of Foxp3-negative T cells expressing IFN-γ (i), IL-2 (ii), and TNF-α (iii) were quantified; conversely, […]
Recipients were challenged with LPS and serum was harvested 120 min later for measurement of TNF-α. Absolute numbers of engrafted human T cells expressing T-bet were quantified.
Cohorts of host mice received the human cell inocula specified, followed by LPS administration on day 5 post-transfer for assessment of lethal cytokine-mediated xGVHD.

Molecule	Tbet+	Post LPS survival (%)	TNF-α	Absolute no. of Foxp3+ T cells expressing IFN-γ	Absolute no. of Foxp3+ T cells expressing IL-2	Absolute no. of Foxp3+ T cells expressing TNF-α	Absolute no. of Foxp3− T cells expressing IL-2	Absolute no. of Foxp3− T cells expressing TNF-α	Absolute no. of Foxp3− T cells expressing IFN-γ
O=S(=O)(O)c1ccc2cc(N=Nc3cc(S(=O)(=O)O)c4cccnc4c3O)ccc2c1 [NSC87877]	~2.7 ×10^3	0%	~0.42 µg/mL	~0.1 ×10^3	~1.4 ×10^3	~1.3 ×10^3	~2.6 ×10^3	~6.0 ×10^3	~1.1 ×10^3
pervanadate	~2.0 ×10^3	33%	~0.37 µg/mL	~.3 ×10^3	~1.3 ×10^3	~0.4 ×10^3	~2 ×10^3	~3.9 ×10^3	~1.5 ×10^3

Reference: US20120251514A1, “MODULATED PROGRAMMED DEATH LIGAND-1” (University Health Network, priority 2009, published 2012)
